Columns and labels:
[1] = system: Hepatitis B virus; assay: Antiviral activity against HBV infected in human HepG2 cells expressing hNTCP-C4 assessed as viral envelope surface protein secretion treated for 16 hrs followed by compound washout measured after 12 days by ELISA; assay type: functional, organism-based
[2] = Cytotoxicity against human HepG2 cells expressing hNTCP-C4 assessed as cell viability by MTT assay; assay type: cell-based; set-up: concentration or dose not given beside the values; conditions: read-out: Activity

Row | SMILES | IC50 [1] | viability [2]
1 | CCC(C)CC(C)C(=O)OC1(C)C(=O)Cc2cc(O)c3c(c2C1=O)C[C@@H](O)C[C@H]3C (stereo not given in full) | 91.2 µM | > 90%
2 | Cc1cccc(O)c1C(=O)Cc1c(C=O)cc(O)c(C)c1O | 51.4 µM | > 90%

Further lines, with some results ahead:

Row | IC50 [1] | SMILES | viability [2]
3 | 10.5 µM | CCC(C)CC(C)C(=O)OC1(C)C(=O)c2c(cc(O)c3c2C[C@@H](O)C[C@H]3C)C(C)(O)C1=O (stereo not given in full) | > 90%
4 | 72.4 µM | CCC(=O)Cc1cc(=O)c2c(C)cc(O)cc2o1 | > 90%
5 | 52.1 µM | CCC(=O)CC1(O)CC(=O)c2c(C)cc(O)cc2O1 (stereo not given) | > 90%

Source: ChEMBL document CHEMBL3616413, “Isolation and structure of vanitaracin A, a novel anti-hepatitis B virus compound from Talaromyces sp” (Bioorg Med Chem Lett, 2015)
